Assay results: ChEMBL document CHEMBL1145498, “A systematic interaction map of validated kinase inhibitors with Ser/Thr kinases” (Proc Natl Acad Sci U S A, 2007)

These compounds were tested against Calcium/calmodulin-dependent protein kinase type 1G (Homo sapiens) (UniProt Q96NX5).
Chain of Calcium/calmodulin-dependent protein kinase type 1G (Homo sapiens) (Q96NX5 whole entry): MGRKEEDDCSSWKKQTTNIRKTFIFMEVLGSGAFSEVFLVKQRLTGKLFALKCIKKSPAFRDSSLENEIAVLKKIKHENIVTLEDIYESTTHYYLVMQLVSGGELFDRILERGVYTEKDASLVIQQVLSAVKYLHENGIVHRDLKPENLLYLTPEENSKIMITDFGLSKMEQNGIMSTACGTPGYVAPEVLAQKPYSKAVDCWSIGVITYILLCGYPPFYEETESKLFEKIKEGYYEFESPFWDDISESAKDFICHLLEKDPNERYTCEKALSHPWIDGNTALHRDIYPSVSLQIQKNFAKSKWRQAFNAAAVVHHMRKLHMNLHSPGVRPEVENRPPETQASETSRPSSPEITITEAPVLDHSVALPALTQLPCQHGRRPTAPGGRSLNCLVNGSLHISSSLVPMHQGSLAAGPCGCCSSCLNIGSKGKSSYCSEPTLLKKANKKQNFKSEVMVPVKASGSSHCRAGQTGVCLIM

SMILES | ΔTm
O=Nc1c(-c2c(O)[nH]c3ccccc23)[nH]c2ccccc12 | 1.1 °C
CC(C)(C)c1nc2c3ccc(F)cc3c3c(=O)[nH]ccc3c2[nH]1 | 1.9 °C

Next, values leading:

ΔTm | SMILES
-0.1 °C | O=c1sn(Cc2ccccc2)c(=S)n1Cc1ccccc1
0.5 °C | Cc1nc(Nc2ncc(C(=O)Nc3c(C)cccc3Cl)s2)cc(N2CCN(CCO)CC2)n1
0.5 °C | Clc1ccc(Nc2nnc(Cc3ccncc3)c3ccccc23)cc1

The compounds below were run against Cyclin-dependent kinase 6 (Homo sapiens) (UniProt Q00534).
Chain of Cyclin-dependent kinase 6 (Homo sapiens) (Q00534 whole entry): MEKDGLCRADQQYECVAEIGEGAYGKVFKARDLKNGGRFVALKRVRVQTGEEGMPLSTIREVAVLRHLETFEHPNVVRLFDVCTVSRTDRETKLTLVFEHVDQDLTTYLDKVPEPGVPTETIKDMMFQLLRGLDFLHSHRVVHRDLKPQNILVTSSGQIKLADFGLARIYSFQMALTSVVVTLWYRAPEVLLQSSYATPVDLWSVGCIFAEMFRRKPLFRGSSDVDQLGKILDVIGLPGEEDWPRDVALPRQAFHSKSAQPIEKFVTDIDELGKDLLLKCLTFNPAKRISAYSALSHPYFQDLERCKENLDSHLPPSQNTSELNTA

SMILES | ΔTm
O=Nc1c(-c2c(O)[nH]c3ccccc23)[nH]c2ccccc12 | 3.3 °C
CC(C)(C)c1nc2c3ccc(F)cc3c3c(=O)[nH]ccc3c2[nH]1 | 0.4 °C

Second part, the compound after the results:

ΔTm | SMILES
-0.4 °C | O=c1sn(Cc2ccccc2)c(=S)n1Cc1ccccc1
-0.1 °C | Cc1nc(Nc2ncc(C(=O)Nc3c(C)cccc3Cl)s2)cc(N2CCN(CCO)CC2)n1
0.3 °C | Clc1ccc(Nc2nnc(Cc3ccncc3)c3ccccc23)cc1

These compounds were tested against Dual specificity protein kinase CLK3 (Homo sapiens) (UniProt P49761).
Chain of Dual specificity protein kinase CLK3 (Homo sapiens) (P49761 whole entry, looked up): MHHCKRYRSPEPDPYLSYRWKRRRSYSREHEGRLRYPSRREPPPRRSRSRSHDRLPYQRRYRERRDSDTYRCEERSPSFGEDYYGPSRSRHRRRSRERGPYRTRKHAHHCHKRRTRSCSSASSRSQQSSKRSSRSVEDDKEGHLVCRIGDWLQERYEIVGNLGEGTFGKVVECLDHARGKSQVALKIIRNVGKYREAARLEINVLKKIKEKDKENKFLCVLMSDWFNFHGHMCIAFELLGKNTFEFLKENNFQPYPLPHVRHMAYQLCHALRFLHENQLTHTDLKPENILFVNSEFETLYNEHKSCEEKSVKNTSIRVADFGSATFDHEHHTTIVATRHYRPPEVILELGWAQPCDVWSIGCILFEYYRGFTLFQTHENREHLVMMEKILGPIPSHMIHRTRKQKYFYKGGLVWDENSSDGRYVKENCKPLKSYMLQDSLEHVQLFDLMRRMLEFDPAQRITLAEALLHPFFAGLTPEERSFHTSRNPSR

SMILES | ΔTm
O=Nc1c(-c2c(O)[nH]c3ccccc23)[nH]c2ccccc12 | 2.7 °C
CC(C)(C)c1nc2c3ccc(F)cc3c3c(=O)[nH]ccc3c2[nH]1 | 2.4 °C

More lines, now with the values ahead:

ΔTm | SMILES
-0.3 °C | O=c1sn(Cc2ccccc2)c(=S)n1Cc1ccccc1
4.1 °C | Cc1nc(Nc2ncc(C(=O)Nc3c(C)cccc3Cl)s2)cc(N2CCN(CCO)CC2)n1
1.1 °C | Clc1ccc(Nc2nnc(Cc3ccncc3)c3ccccc23)cc1

What follows are compounds tested against T1, Mitogen-activated protein kinase kinase kinase 5 (Homo sapiens) (UniProt Q99683).
T1 sequence (whole entry): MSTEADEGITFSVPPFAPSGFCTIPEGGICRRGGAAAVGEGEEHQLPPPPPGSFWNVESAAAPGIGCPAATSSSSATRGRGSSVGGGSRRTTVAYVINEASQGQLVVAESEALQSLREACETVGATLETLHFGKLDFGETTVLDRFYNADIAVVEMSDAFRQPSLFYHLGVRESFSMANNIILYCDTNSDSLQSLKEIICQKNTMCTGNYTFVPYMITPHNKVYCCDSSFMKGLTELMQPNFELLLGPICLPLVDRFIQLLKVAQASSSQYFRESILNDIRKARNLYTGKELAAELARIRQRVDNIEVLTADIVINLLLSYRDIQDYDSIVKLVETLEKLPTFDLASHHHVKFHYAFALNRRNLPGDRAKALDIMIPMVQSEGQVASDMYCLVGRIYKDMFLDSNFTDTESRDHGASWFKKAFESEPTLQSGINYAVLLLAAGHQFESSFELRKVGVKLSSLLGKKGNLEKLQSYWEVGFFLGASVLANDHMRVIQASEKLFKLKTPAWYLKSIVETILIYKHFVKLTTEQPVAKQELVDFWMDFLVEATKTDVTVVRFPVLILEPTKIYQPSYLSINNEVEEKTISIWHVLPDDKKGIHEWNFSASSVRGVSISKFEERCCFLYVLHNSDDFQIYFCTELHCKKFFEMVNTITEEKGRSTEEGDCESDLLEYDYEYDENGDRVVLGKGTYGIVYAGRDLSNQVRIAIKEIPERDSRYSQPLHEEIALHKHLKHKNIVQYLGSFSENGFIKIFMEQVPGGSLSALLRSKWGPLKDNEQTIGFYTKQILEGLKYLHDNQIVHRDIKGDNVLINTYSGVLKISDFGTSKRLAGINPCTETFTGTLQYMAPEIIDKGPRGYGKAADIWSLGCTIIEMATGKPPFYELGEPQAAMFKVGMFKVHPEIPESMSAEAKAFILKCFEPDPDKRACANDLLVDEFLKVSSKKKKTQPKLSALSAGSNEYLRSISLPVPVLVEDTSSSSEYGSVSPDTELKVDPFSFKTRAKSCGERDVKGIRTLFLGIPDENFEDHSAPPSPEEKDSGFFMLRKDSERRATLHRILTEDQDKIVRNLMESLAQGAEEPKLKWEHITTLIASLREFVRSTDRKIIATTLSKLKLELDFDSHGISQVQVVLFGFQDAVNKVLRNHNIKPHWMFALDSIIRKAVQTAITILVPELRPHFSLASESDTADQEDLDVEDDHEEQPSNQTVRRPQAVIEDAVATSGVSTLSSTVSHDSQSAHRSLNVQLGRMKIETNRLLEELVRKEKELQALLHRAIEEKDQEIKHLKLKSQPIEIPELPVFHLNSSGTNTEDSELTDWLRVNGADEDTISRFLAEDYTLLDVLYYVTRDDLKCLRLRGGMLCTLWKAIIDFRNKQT

SMILES | ΔTm
O=Nc1c(-c2c(O)[nH]c3ccccc23)[nH]c2ccccc12 | 5.7 °C
CC(C)(C)c1nc2c3ccc(F)cc3c3c(=O)[nH]ccc3c2[nH]1 | 4.9 °C

Further lines, results first:

ΔTm | SMILES
0.2 °C | O=c1sn(Cc2ccccc2)c(=S)n1Cc1ccccc1
0.2 °C | Cc1nc(Nc2ncc(C(=O)Nc3c(C)cccc3Cl)s2)cc(N2CCN(CCO)CC2)n1
-0.1 °C | Clc1ccc(Nc2nnc(Cc3ccncc3)c3ccccc23)cc1

What follows are compounds tested against Mitogen-activated protein kinase 6 (Homo sapiens) (UniProt Q16659).
Chain of Mitogen-activated protein kinase 6 (Homo sapiens) (Q16659 whole entry): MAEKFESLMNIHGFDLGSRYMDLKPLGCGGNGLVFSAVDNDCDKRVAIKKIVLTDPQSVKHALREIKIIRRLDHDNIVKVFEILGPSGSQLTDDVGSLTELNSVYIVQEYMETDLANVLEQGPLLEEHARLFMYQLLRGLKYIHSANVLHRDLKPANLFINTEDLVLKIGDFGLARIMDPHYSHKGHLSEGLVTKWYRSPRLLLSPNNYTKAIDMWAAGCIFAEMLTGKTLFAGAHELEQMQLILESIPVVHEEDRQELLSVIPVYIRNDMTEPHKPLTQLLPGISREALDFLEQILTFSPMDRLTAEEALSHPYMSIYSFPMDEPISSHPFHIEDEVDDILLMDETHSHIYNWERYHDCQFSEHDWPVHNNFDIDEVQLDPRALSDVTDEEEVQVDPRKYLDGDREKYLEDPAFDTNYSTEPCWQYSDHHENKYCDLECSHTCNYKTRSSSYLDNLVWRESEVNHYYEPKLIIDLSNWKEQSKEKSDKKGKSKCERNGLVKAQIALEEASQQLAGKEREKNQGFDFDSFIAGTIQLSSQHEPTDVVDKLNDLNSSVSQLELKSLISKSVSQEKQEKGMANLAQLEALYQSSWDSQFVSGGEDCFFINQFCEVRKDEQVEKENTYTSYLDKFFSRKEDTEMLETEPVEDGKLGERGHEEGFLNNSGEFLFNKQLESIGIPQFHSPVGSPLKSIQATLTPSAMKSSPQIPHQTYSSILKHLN

SMILES | ΔTm
O=Nc1c(-c2c(O)[nH]c3ccccc23)[nH]c2ccccc12 | 0.1 °C
CC(C)(C)c1nc2c3ccc(F)cc3c3c(=O)[nH]ccc3c2[nH]1 | 0.2 °C

The next lines start with the values.

ΔTm | SMILES
0.5 °C | O=c1sn(Cc2ccccc2)c(=S)n1Cc1ccccc1
0.9 °C | Cc1nc(Nc2ncc(C(=O)Nc3c(C)cccc3Cl)s2)cc(N2CCN(CCO)CC2)n1
1.3 °C | Clc1ccc(Nc2nnc(Cc3ccncc3)c3ccccc23)cc1

What follows are compounds tested against T2, Serine/threonine-protein kinase Nek2 (Homo sapiens) (UniProt P51955).
T2 sequence (whole entry): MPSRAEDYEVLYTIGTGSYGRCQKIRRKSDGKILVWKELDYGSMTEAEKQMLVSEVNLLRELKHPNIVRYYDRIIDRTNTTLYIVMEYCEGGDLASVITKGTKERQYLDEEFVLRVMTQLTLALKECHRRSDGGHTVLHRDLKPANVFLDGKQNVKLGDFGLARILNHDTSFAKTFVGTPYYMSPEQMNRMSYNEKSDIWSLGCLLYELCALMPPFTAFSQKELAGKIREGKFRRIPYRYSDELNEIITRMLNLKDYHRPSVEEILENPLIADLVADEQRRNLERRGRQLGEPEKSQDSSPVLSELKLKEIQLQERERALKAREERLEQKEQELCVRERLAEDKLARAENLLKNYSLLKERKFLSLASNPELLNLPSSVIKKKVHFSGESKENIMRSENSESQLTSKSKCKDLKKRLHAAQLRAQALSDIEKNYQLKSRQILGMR

SMILES | ΔTm
O=Nc1c(-c2c(O)[nH]c3ccccc23)[nH]c2ccccc12 | 2.5 °C
CC(C)(C)c1nc2c3ccc(F)cc3c3c(=O)[nH]ccc3c2[nH]1 | 0.7 °C

Next, values leading:

ΔTm | SMILES
1.5 °C | O=c1sn(Cc2ccccc2)c(=S)n1Cc1ccccc1
0.1 °C | Cc1nc(Nc2ncc(C(=O)Nc3c(C)cccc3Cl)s2)cc(N2CCN(CCO)CC2)n1
0.6 °C | Clc1ccc(Nc2nnc(Cc3ccncc3)c3ccccc23)cc1

These compounds were tested against Cyclin-dependent kinase 16 (Homo sapiens) (UniProt Q00536).
Chain of Cyclin-dependent kinase 16 (Homo sapiens) (Q00536 whole entry): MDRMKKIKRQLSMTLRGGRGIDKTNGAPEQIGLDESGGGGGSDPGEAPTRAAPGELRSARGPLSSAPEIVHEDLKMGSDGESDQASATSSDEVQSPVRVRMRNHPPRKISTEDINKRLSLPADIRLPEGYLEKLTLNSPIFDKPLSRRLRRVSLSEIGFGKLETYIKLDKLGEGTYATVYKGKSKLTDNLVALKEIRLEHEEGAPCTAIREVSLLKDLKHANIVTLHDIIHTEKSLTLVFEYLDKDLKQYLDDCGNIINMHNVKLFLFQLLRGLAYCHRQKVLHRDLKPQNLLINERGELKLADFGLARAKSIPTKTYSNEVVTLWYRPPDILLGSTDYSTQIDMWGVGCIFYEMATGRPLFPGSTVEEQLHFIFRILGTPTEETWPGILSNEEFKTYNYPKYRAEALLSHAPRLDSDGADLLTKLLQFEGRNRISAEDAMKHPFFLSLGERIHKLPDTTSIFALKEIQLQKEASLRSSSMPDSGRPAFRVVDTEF

SMILES | ΔTm
O=Nc1c(-c2c(O)[nH]c3ccccc23)[nH]c2ccccc12 | 3.2 °C
CC(C)(C)c1nc2c3ccc(F)cc3c3c(=O)[nH]ccc3c2[nH]1 | 0 °C

Now from value to compound:

ΔTm | SMILES
-0.4 °C | O=c1sn(Cc2ccccc2)c(=S)n1Cc1ccccc1
-0.4 °C | Cc1nc(Nc2ncc(C(=O)Nc3c(C)cccc3Cl)s2)cc(N2CCN(CCO)CC2)n1
0.2 °C | Clc1ccc(Nc2nnc(Cc3ccncc3)c3ccccc23)cc1

What follows are compounds tested against Serine/threonine-protein kinase PLK1 (Homo sapiens) (UniProt P53350).
Chain of Serine/threonine-protein kinase PLK1 (Homo sapiens) (P53350 whole entry): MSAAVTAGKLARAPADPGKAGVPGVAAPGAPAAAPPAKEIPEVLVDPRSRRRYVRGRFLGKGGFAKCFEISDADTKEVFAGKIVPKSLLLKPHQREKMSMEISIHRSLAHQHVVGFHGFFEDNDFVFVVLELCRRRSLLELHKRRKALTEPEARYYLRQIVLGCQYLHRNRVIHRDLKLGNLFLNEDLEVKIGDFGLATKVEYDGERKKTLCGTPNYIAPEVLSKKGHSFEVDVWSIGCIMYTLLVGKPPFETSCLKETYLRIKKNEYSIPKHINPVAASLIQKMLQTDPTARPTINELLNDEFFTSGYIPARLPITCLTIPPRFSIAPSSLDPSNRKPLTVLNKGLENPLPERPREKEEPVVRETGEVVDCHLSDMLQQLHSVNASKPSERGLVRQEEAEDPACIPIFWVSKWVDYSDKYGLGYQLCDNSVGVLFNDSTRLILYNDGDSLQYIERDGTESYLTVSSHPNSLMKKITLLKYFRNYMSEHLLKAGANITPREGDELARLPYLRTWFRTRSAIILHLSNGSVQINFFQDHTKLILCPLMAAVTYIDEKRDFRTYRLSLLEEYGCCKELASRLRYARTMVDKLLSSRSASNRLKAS

SMILES | ΔTm
O=Nc1c(-c2c(O)[nH]c3ccccc23)[nH]c2ccccc12 | 0.2 °C
CC(C)(C)c1nc2c3ccc(F)cc3c3c(=O)[nH]ccc3c2[nH]1 | 11.9 °C

The next lines start with the values.

ΔTm | SMILES
1.3 °C | O=c1sn(Cc2ccccc2)c(=S)n1Cc1ccccc1
2.4 °C | Cc1nc(Nc2ncc(C(=O)Nc3c(C)cccc3Cl)s2)cc(N2CCN(CCO)CC2)n1
0 °C | Clc1ccc(Nc2nnc(Cc3ccncc3)c3ccccc23)cc1

Each compound was assayed against Serine/threonine-protein kinase 10 (Homo sapiens) (UniProt O94804).
Chain of Serine/threonine-protein kinase 10 (Homo sapiens) (O94804 whole entry, looked up): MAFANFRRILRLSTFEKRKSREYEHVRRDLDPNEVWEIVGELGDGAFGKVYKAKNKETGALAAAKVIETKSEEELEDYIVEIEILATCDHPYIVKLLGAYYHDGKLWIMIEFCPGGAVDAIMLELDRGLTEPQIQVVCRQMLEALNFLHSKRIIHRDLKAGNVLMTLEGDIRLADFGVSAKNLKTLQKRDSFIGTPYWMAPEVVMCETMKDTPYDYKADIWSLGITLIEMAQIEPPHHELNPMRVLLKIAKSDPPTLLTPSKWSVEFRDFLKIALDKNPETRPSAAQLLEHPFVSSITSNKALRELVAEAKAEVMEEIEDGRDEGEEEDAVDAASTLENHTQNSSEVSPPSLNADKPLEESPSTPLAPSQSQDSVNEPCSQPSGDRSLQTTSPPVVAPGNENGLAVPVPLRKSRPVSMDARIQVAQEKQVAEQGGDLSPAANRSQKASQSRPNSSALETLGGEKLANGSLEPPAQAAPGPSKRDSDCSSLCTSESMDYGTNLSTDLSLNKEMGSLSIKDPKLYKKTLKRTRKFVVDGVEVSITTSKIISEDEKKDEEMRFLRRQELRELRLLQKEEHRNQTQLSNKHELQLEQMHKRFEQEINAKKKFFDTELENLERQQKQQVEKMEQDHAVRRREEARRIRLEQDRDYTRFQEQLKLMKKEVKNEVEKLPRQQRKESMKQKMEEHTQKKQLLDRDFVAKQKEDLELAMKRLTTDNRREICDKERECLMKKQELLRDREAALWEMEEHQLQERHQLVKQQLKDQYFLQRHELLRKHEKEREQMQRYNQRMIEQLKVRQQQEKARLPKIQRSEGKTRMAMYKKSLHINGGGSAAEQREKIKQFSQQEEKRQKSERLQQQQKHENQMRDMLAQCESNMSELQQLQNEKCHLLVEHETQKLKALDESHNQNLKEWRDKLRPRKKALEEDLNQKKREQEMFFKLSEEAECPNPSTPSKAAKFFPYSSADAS

ΔTm | SMILES
0.9 °C | O=c1sn(Cc2ccccc2)c(=S)n1Cc1ccccc1
4.2 °C | O=Nc1c(-c2c(O)[nH]c3ccccc23)[nH]c2ccccc12
6.4 °C | CC(C)(C)c1nc2c3ccc(F)cc3c3c(=O)[nH]ccc3c2[nH]1

What follows are compounds tested against T3, Serine/threonine-protein kinase 4 (Homo sapiens) (UniProt Q13043).
T3 sequence (whole entry): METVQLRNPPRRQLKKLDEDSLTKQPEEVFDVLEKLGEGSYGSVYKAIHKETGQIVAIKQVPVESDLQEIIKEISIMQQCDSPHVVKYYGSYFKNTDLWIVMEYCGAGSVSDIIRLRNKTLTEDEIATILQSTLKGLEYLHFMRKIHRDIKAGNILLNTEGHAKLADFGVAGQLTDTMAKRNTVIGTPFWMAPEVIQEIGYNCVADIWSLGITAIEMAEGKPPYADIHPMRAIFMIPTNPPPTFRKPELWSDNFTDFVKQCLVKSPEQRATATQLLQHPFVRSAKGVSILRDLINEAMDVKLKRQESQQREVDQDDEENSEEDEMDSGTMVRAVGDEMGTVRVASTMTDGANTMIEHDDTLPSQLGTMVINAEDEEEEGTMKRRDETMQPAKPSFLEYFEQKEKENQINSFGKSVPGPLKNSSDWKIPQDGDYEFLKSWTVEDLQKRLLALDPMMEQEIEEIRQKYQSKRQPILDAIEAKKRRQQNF

ΔTm | SMILES
0.9 °C | O=c1sn(Cc2ccccc2)c(=S)n1Cc1ccccc1
7.8 °C | O=Nc1c(-c2c(O)[nH]c3ccccc23)[nH]c2ccccc12
7.8 °C | CC(C)(C)c1nc2c3ccc(F)cc3c3c(=O)[nH]ccc3c2[nH]1
